“Also recorded” adds a separate entry of the source.
Key:
[1] = system: Adenovirus types 1, 2, 3, 4, 5, and 7; assay: CTC-96 efficacy against several adenovirus serotypes in HeLa cells in tissue culture (viral titers at each drug concentration); type: cell-based, Human Adenoviruses; settings: drug overlaid after 1 hour adsorption, 24 hours, 500, 250, 100, 50, 10 μg/ml
Experimental: Since these human viruses cannot be grown in animal models, this provides an excellent indication of the effectiveness of CTC-96 against a broad spectrum of Adenovirus types. To determine CTC-96 efficacy against several types of serotypes of adevirus the following procedure was followed:
1. Hela cells were confluent at the time of inoculation.
2. Virus dilutions were prepared from the known titers of the stock viruses (4×10^5 pfu/ml; 4×10^4/0.1 ml) of Ad1 Kmetz, Ad2 Wolf, Ad3 Holyfield, Ad4 Harris, Ad7a Joseph, ATCC. This virus inoculation yielded a virus infection with an m.o.i. (multiplicity of infection) of approximately 1.0.
3. 100 µl of each Ad serotype were inoculated onto cultures containing Hela cells.
4. During the adsorption period, Doxovir concentrations of 500, 250, 100, 50, 10, and 0 μg/ml were prepared in culture medium according to the dilution protocol.
5. Virus was adsorbed at 37° C. in a 5% CO2 water-vapor atmosphere for 1 hour.
6. […]
13. Viral titers were determined at each drug concentration. […]
(§1) Anti-adenovirus activity of CTC-96 was evaluated by standard cell culture using HeLa cells, a human cervical carcinoma immortalized cell line (the usual host for laboratory grade adenovirus) and anti-viral plaque-reduction assays.

Adenovirus type 5 (Ad5) = assay: Adenovirus type 5 titers following direct exposure of the virus to CTC-96 prior to HeLa cell infection (plaque assay); type: cell-based; settings: Ad5 incubated with CTC-96 at 37° C. for 60 minutes, diluted 500 fold, HeLa cells
Experimental: as §1
The data graphically depicted in FIG. 1 were obtained as follows: varying concentrations of the CTC-96 were mixed with concentrated Human Adenovirus, [Adenovirus type 5 (Ad5)] and incubated at 37° C. for 60 minutes. Aliquots were then diluted 500 fold into growth medium. Hela cells were exposed to 100 μl of the diluted material to initiate infection. These monolayers were incubated for 24 hours at 37% and 5% CO2 and then washed, scraped, sonicated, centrifuged and the supernatant serially diluted. These serial dilutions were plated onto indicator HeLa cell monolayers and adsorbed for 60 min, aspirated and a methycellulose overlay placed over the cells, which were then incubated for 3 days at 37%. Cultures were counterstained with 1% methylene blue, allowed to dry and the plaques counted. Results are expressed as mean±SD (where error bars are not visible they are contained within data point).

[2] = system: human Adenovirus type 5 (Ad5); assay: Virus titers after exposure of Ad5 infected HeLa cells to CTC-96 (plaque assay); type: cell-based; settings: Ad5 adsorbed onto HeLa monolayers 60 min, then CTC-96 for 24 hr
Experimental: Monolayers were then incubated for 24 hr at 37° C. and 5% CO2. Monolayers were then washed, scraped, sonicated, centrifuged and the supernatant serially diluted. These serial dilutions were plated onto indicator HeLa cell monolayers and adsorbed for 60 min, aspirated and a methylcellulose overlay placed over the cells, which were then incubated for 3 days at 37%. Cultures were counterstained with 1% methylene blue, allowed to dry and the plaques counted. Results am expressed as mean & SD (where error bars are not visible they are contained within data point).

Human Adenovirus Type 5 [3] = assay: CTC-96 treatment of Adenovirus induced keratoconjunctivitis in rabbit eyes, clinical grading by slit lamp microscopy; type: in vivo; settings: for progression of disease severity: 21 days, from day 8 post-inoculation
Experimental: (§2) Clinical results and plaque assay viral titers of three CTC-96 treatment/dosing regimens of rabbit eyes infected with Human adenovirus, Adenovirus type 5 (Ad5), were evaluated. On “Day 1” animals were infected with Human Adenovirus Type 5 by the installation of 10^6 pfu adenovirus according to our protocol of conjunctival and corneal scarification for the induction of Keratoconjunctivitis. […] Animals were then randomized and the following experimental groups were treated with CTC-96 or placebo in a double blind experiment: • (1) Placebo (diluent alone), 9×/day, for 21 days: (4 rabbits). • (2) CTC-96 50 μg/ml, 9×/day, for 21 days: (4 rabbits). • (3) CTC-96 50 μg/ml, 6×/day, for 21 days: (4 rabbits). • (4) C T W 25 μg/ml, 6×/day, for 21 bays: (4 rabbits).
Clinical disease progression and resolution were evaluated by slit lamp microscopy on days 1, 3, 7, 10, 13, 18, 21, 24, 28 and 31 after initial drug dosing. The intensity of the keratitis was quantified using a clinical grading system (5).
The data In FIG. 3 were obtained as follows: rabbits were infected with Human Adenovirus Type 5 by the installation 10^6 pfu adenovirus according to our protocol of conjunctival and corneal scarification for the production of Keratoconjunctivitis. On day 8 post-inoculation treatment with eye drops containing CTC-96 or placebo was initiated. Animals were examined for stromal keratitis and scored by the corneal disease scale of Wander et al. (5). The following are the Criteria For Determination Of Conjunctival Disease: […]

Human Adenovirus Type 5 [4] = assay: Adenovirus recovery from tear film of infected rabbit eyes, plaque assay on HeLa cell monolayers; type: in vivo
Experimental: as §2
The efficacy of CTC-96 treatment of rabbit eyes infected with Human adenovirus, Adenovirus type 5 (Ad5), was also evaluated by adenovirus recovery from tear film cultures adsorbed onto confluent HeLa cell monolayers. […] On day 8 post-inoculation treatment with eye drops containing CTC-96 or placebo was initiated. Adenovirus recovery from tear film was evaluated by plaque assay on confluent HeLa cell monolayers. Data are presented as Average±SD.

CC(/C=C(/C)[O-])=NCCN=C(C)/C=C(/C)[O-].Cc1ncc[nH]1.Cc1ncc[nH]1.[Br-].[Co+3] [CTC-96]
efficacy against Adenovirus types in culture [1]: effective against types 1, 2, 3, 4, 5, and 7; also recorded: efficacy against Adenovirus types 1, 2, 3, 4, 5, and 7 | effect on virus growth when virus is exposed to the drug prior to cell infection (Adenovirus type 5 (Ad5)): inhibitory (prophylactic) effect on growth | effect on viral growth in Adenovirus infected cells subsequently exposed to the drug [2]: inhibition of viral growth | complete resolution of clinical disease (day after initial drug dosing) (Human Adenovirus Type 5 [3]; 50 μg/ml 6 times a day for 21 days): ≤ 21 days | complete resolution of clinical disease (day after initial drug dosing) (Human Adenovirus Type 5 [3]; 50 μg/ml 9 times a day for 21 days): ≤ 21 days | progression of disease severity (Human Adenovirus Type 5 [3]; topical eye drops 25 μg/ml, 6×/day): prevented progression of disease severity | progression of disease severity (Human Adenovirus Type 5 [3]; topical eye drops 50 μg/ml, 6×/day or 9×/day): prevented progression of disease severity | no detectable virus in the eye (Human Adenovirus Type 5 [4]; 50 μg/ml 6 times a day): ≤ 13 days | no detectable virus in the eye (Human Adenovirus Type 5 [4]; 50 μg/ml 9 times a day): ≤ 13 days

Reference: patent publication US20060025398A1, “Topical antiviral therapeutic and prophylactic treatment of adenoviruses and their associated diseases” (priority 2003, published 2006)
